In PubChem BioAssay AID2060495 (Molecular Pharmacology Branch, DTP, NCI, 2025):

Tested on: 521955-158-R2-J5-PDC complex spheroid viability
Assay: Anticancer human tumor 521955-158-R2-J5-PDC patient-derived pancreatic carcinoma cell line growth inhibition [GQUAD]
Conditions: for IC50: curve of first compound; for viability, T/C: stronger effect = lower value
Procedure, shortened: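 Multi-cell-type spheroids of tumor cells with HUVEC and mesenchymal stem cells, treated with drug combinations. Concentrations descend in half-log steps from near clinical Cmax, or from 10 microM where Cmax is unknown; viability read-out.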

[1] = second compound 0.0316 µM, first compound 0.0316 µM
[2] = second compound 0.0316 µM, first compound 0.1 µM
[3] = second compound 0.0316 µM, first compound 0.316 µM
[4] = second compound 0.0316 µM, first compound 1 µM
[5] = second compound 0.0316 µM, first compound 3.16 µM
[6] = second compound 0.0316 µM, first compound 10 µM
[7] = second compound 0.1 µM, first compound 0.0316 µM
[8] = second compound 0.1 µM, first compound 0.1 µM
[9] = second compound 0.1 µM, first compound 0.316 µM
[10] = second compound 0.1 µM, first compound 1 µM
[11] = second compound 0.1 µM, first compound 3.16 µM
[12] = second compound 0.1 µM, first compound 10 µM
[13] = second compound 0.316 µM, first compound 0.0316 µM
[14] = second compound 0.316 µM, first compound 0.1 µM
[15] = second compound 0.316 µM, first compound 0.316 µM
[16] = second compound 0.316 µM, first compound 1 µM
[17] = second compound 0.316 µM, first compound 3.16 µM
[18] = second compound 0.316 µM, first compound 10 µM
[19] = second compound 1 µM, first compound 0.0316 µM
[20] = second compound 1 µM, first compound 0.1 µM
[21] = second compound 1 µM, first compound 0.316 µM
[22] = second compound 1 µM, first compound 1 µM
[23] = second compound 1 µM, first compound 3.16 µM
[24] = second compound 1 µM, first compound 10 µM
[25] = second compound 3.16 µM, first compound 0.0316 µM
[26] = second compound 3.16 µM, first compound 0.1 µM
[27] = second compound 3.16 µM, first compound 0.316 µM
[28] = second compound 3.16 µM, first compound 1 µM
[29] = second compound 3.16 µM, first compound 3.16 µM
[30] = second compound 3.16 µM, first compound 10 µM
[31] = second compound 10 µM, first compound 0.0316 µM
[32] = second compound 10 µM, first compound 0.1 µM
[33] = second compound 10 µM, first compound 0.316 µM
[34] = second compound 10 µM, first compound 1 µM
[35] = second compound 10 µM, first compound 3.16 µM
[36] = second compound 10 µM, first compound 10 µM
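Also: spheroids exposed to agents for one week before reading.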
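For viability, T/C in this document: 100% = DMSO vehicle control viability.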

## COc1cccc2c1C(=O)c1c(O)c3c(c(O)c1C2=O)CC(O)(C(=O)CO)CC3OC1CC(N)C(O)C(C)O1 (stereo unspecified) + CN(C)c1ccc(Nc2c3ccc(NC(=O)CCN4CCCC4)cc3nc3cc(NC(=O)CCN4CCCC4)ccc23)cc1
Second compound 0.0316 µM
  IC50: 0.164 µM
Second compound 0.1 µM
  IC50: 0.221 µM
Second compound 0.316 µM
  IC50: 0.208 µM
Second compound 1 µM
  IC50: 0.186 µM
Second compound 3.16 µM
  IC50: 0.176 µM
Second compound 10 µM
  IC50: 0.422 µM
[1]
  viability, T/C: 85.5%
[2]
  viability, T/C: 56.6%
[3]
  viability, T/C: 31.2%
[4]
  viability, T/C: 37.4%
[5]
  viability, T/C: 3.76%
[6]
  viability, T/C: 2.73%
[7]
  viability, T/C: 97.3%
[8]
  viability, T/C: 68.8%
[9]
  viability, T/C: 37.8%
[10]
  viability, T/C: 29.9%
[11]
  viability, T/C: 2.6%
[12]
  viability, T/C: 2.75%
[13]
  viability, T/C: 101%
[14]
  viability, T/C: 67.6%
[15]
  viability, T/C: 34.3%
[16]
  viability, T/C: 33.3%
[17]
  viability, T/C: 1.27%
[18]
  viability, T/C: 2.99%
[19]
  viability, T/C: 85.9%
[20]
  viability, T/C: 67.9%
[21]
  viability, T/C: 29.1%
[22]
  viability, T/C: 30.7%
[23]
  viability, T/C: 0.97%
[24]
  viability, T/C: 3%
[25]
  viability, T/C: 83%
[26]
  viability, T/C: 58.2%
[27]
  viability, T/C: 34.1%
[28]
  viability, T/C: 36.5%
[29]
  viability, T/C: 1.22%
[30]
  viability, T/C: 1.89%
[31]
  viability, T/C: 61.9%
[32]
  viability, T/C: 61.7%
[33]
  viability, T/C: 52.9%
[34]
  viability, T/C: 33.1%
[35]
  viability, T/C: 1.41%
[36]
  viability, T/C: 1.9%

## Nc1ccn(C2OC(CO)C(O)C2(F)F)c(=O)n1 (stereo unspecified) + CN(C)c1ccc(Nc2c3ccc(NC(=O)CCN4CCCC4)cc3nc3cc(NC(=O)CCN4CCCC4)ccc23)cc1
Second compound 0.0316 µM
  IC50: 0.774 µM
Second compound 0.1 µM
  IC50: 0.423 µM
Second compound 0.316 µM
  IC50: 0.434 µM
Second compound 1 µM
  IC50: 0.394 µM
Second compound 3.16 µM
  IC50: 0.157 µM
Second compound 10 µM
  IC50: 0.083 µM
[1]
  viability, T/C: 76.5%
[2]
  viability, T/C: 73.5%
[3]
  viability, T/C: 66%
[4]
  viability, T/C: 45.1%
[5]
  viability, T/C: 24.1%
[6]
  viability, T/C: 12.6%
[7]
  viability, T/C: 76.6%
[8]
  viability, T/C: 76.5%
[9]
  viability, T/C: 54.5%
[10]
  viability, T/C: 32.3%
[11]
  viability, T/C: 19.5%
[12]
  viability, T/C: 14.7%
[13]
  viability, T/C: 65.2%
[14]
  viability, T/C: 66.7%
[15]
  viability, T/C: 56.9%
[16]
  viability, T/C: 31.1%
[17]
  viability, T/C: 17.1%
[18]
  viability, T/C: 14.2%
[19]
  viability, T/C: 71.7%
[20]
  viability, T/C: 58.7%
[21]
  viability, T/C: 57.1%
[22]
  viability, T/C: 25.9%
[23]
  viability, T/C: 12.5%
[24]
  viability, T/C: 12%
[25]
  viability, T/C: 61.6%
[26]
  viability, T/C: 52.8%
[27]
  viability, T/C: 43.2%
[28]
  viability, T/C: 22.4%
[29]
  viability, T/C: 12.5%
[30]
  viability, T/C: 11.9%
[31]
  viability, T/C: 64.8%
[32]
  viability, T/C: 39.9%
[33]
  viability, T/C: 41.1%
[34]
  viability, T/C: 27%
[35]
  viability, T/C: 17.2%
[36]
  viability, T/C: 11.6%

## O=c1[nH]cc(F)c(=O)[nH]1 + CN(C)c1ccc(Nc2c3ccc(NC(=O)CCN4CCCC4)cc3nc3cc(NC(=O)CCN4CCCC4)ccc23)cc1
Second compound 0.0316 µM
  IC50: > 10 µM
Second compound 0.1 µM
  IC50: > 10 µM
Second compound 0.316 µM
  IC50: > 10 µM
Second compound 1 µM
  IC50: > 10 µM
Second compound 3.16 µM
  IC50: > 10 µM
Second compound 10 µM
  IC50: > 10 µM
[1]
  viability, T/C: 103%
[2]
  viability, T/C: 112%
[3]
  viability, T/C: 97.8%
[4]
  viability, T/C: 105%
[5]
  viability, T/C: 109%
[6]
  viability, T/C: 51.5%
[7]
  viability, T/C: 91.3%
[8]
  viability, T/C: 88.9%
[9]
  viability, T/C: 95.9%
[10]
  viability, T/C: 93.4%
[11]
  viability, T/C: 95%
[12]
  viability, T/C: 56.1%
[13]
  viability, T/C: 91.3%
[14]
  viability, T/C: 92.7%
[15]
  viability, T/C: 108%
[16]
  viability, T/C: 96.8%
[17]
  viability, T/C: 94.4%
[18]
  viability, T/C: 58.5%
[19]
  viability, T/C: 80.9%
[20]
  viability, T/C: 82.8%
[21]
  viability, T/C: 86.1%
[22]
  viability, T/C: 101%
[23]
  viability, T/C: 94.8%
[24]
  viability, T/C: 55.9%
[25]
  viability, T/C: 86.4%
[26]
  viability, T/C: 87.4%
[27]
  viability, T/C: 97.1%
[28]
  viability, T/C: 85%
[29]
  viability, T/C: 93.9%
[30]
  viability, T/C: 53.4%
[31]
  viability, T/C: 58.5%
[32]
  viability, T/C: 58.1%
[33]
  viability, T/C: 75.3%
[34]
  viability, T/C: 65.3%
[35]
  viability, T/C: 66.1%
[36]
  viability, T/C: 49.5%
